Results on 14 compounds are retold here after PubChem BioAssay (NCI).

In general, TGI refers to the concentration at which net growth stops.

What all share (experiment): DTP human tumour cell line panel, 48 h
Experiment [1] has as its system SN12C renal.
Experiment [2] deals with SK-MEL-2 melanoma.
For experiment [3], the system named is CAKI-1 renal.
Experiment [4] relates to U251 CNS.
Experiment [5] concerns UO-31 renal.
In experiment [6] the test system is SF-268 CNS.
In experiment [7] the test system is EKVX NSCLC.
The test system of experiment [8] is HCT-116 colon.
Experiment [9] deals with M19-MEL melanoma.
The test system of experiment [10] is CCRF-CEM leukemia.

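48-hour exposure; five concentrations; linearly interpolated endpoints. The concentration for full growth arrest is given as TGI.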

For the compound `CC1=C[C@H]2C[C@@]3(C)O[C@@H]([C@]4(C)CC[C@H]([C@@H](C)C(=O)O)OO4)CC3C(C)(C)[C@H]2CC1` (stereo partly drawn), the TGI worked out at 2.79 µM in [1]; 3.21 µM in experiment [2]; 2.89 µM in [3]; 3.01 µM in experiment [4]; 2.59 µM in experiment [5]; 4.2 µM in experiment [6]. For the same compound, the TGI in [7] came out at 3.67 µM; in [8] it was 3.78 µM; in [9], 3.3 µM.

Consider `Clc1cccc(C2SCc3nc4ccccc4n32)c1Cl` (stereo not drawn), for which the TGI in experiment [1] turned out to be 32.5 µM; in experiment [2], 32.2 µM; in [3], 34.1 µM; in experiment [4], 31.7 µM; in experiment [5], 25.8 µM; in experiment [6] it was 36.5 µM. Further, the TGI amounted to 30.8 µM in [7], 48.2 µM in experiment [10], 33.5 µM in [8] and 29.6 µM in experiment [9].

For `O=C(O)CNS(=O)(=O)c1ccc(NC(=O)c2cccc([N+](=O)[O-])c2)cc1`, the TGI in [1], in [2], in experiment [3], in experiment [4], in experiment [5] and in [6] was > 100 µM each time. Further, the TGI in experiment [7], in experiment [10] and in experiment [9] was > 100 µM each time.

As for `Cc1ccc(C)c(NC(=O)CCc2n[nH]c(=S)o2)c1`, the TGI in [1], in [3], in [4], in experiment [5], in experiment [6] and in experiment [7] was > 100 µM in each case. The TGI in [10], in [8] and in experiment [9] was > 100 µM in each case.

`Cc1cc(C(=O)NCCN(C)C)c2nc3ccccc3nc2c1`: the TGI is 43.7 µM in experiment [1]; 17.2 µM in experiment [2]; > 46.5 µM in experiment [3]; 33.3 µM in [4]; > 59.6 µM in [5]; 43.5 µM in experiment [7]. For the same compound, the concentration for total growth inhibition (TGI) in [8] stood at 16.3 µM; in experiment [9], 13.6 µM.

Turning to `Cc1cc(Br)cc(C)c1NC(=O)C(=O)C(C(=O)c1ccc(Cl)c(Cl)c1)C1OC(=O)c2ccccc21` (stereo not drawn), the concentration for total growth inhibition (TGI) in [1], in [2], in experiment [3], in experiment [4], in experiment [5] and in experiment [6] was > 100 µM throughout. For the same compound, the concentration for total growth inhibition (TGI) in [7], in [10], in experiment [8] and in experiment [9] was > 100 µM in each case.

Turning to `OCC(O)C(OC1OC(CO)C(O)C(O)C1O)c1nn(-c2ccc(F)cc2)c2nc3cc(Cl)c(Cl)cc3cc12` (stereo not drawn), the TGI in [1], in experiment [4], in experiment [5], in experiment [6], in experiment [7] and in experiment [10] was > 100 µM each time. Further, the TGI in experiment [8] and in [9] was > 100 µM in each case.

`Cc1ccc(C)c2sc3cc(=O)ccc-3nc12`: the TGI in experiment [1] is > 100 µM; in experiment [2], > 100 µM; in [3] it was 70.5 µM; in experiment [4], > 100 µM; in experiment [5], > 100 µM; in [6], > 100 µM. Further, the TGI in experiment [7] was > 100 µM; in experiment [10], 70.3 µM; in experiment [8] it was > 100 µM; in experiment [9], 31.1 µM.

`COc1ccc(C2CC(C)=Nc3c([nH]c(=S)[nH]c3=O)N2)cc1` (stereo not drawn): the TGI in experiment [1] was 36.7 µM; in experiment [2] it was > 100 µM; in [3], 65 µM; in experiment [4], 32.4 µM; in experiment [5], 32.8 µM; in [6], > 100 µM. Besides, the TGI in experiment [7] stood at 50.2 µM; in [10], 54.4 µM; in [8], 30.1 µM; in experiment [9], 31 µM.

Turning to `CC12CC(=O)NN=C1c1ccccc1C2` (stereo not drawn), the TGI in [1], in experiment [2], in [3], in experiment [4], in [5] and in [6] was > 100 µM each time. The TGI in experiment [7], in experiment [10], in [8] and in [9] was > 100 µM each time.

`O=C1CCCC2COc3ccc(O)c1c32` (stereo not drawn): the TGI in [1], in experiment [2], in experiment [4], in experiment [5], in [6] and in experiment [7] was > 100 µM throughout. For the same compound, the TGI in experiment [10] and in experiment [9] was > 100 µM in each case.

`NC(=O)Cn1c(=O)[nH]c(=O)c2[nH]cnc21`: the TGI in [1], in [2], in experiment [4], in experiment [5], in experiment [6] and in [7] was > 100 µM in each case. Moreover, the TGI in experiment [10], in [8] and in experiment [9] was > 100 µM throughout.

On to `Cc1nc(Nc2ccc([N+](=O)[O-])cc2)sc1C(=O)/C=C/c1ccc(N(C)C)cc1`, for which the TGI in experiment [1], in [2], in [3], in experiment [4], in experiment [5] and in [6] was > 100 µM in each case. The TGI in [7], in [10] and in [9] was > 100 µM each time.

As for `COc1ccc(-c2nc(N)nc(-c3cc(C)ccc3O)c2Cl)cc1`, the TGI in experiment [1], in experiment [3], in [4], in [5], in experiment [6] and in [7] was > 100 µM in each case. Moreover, the TGI in experiment [10], in experiment [8] and in [9] was > 100 µM in each case.
